# According to patent US8450300B2 (priority 2009, dated 2013):
# Entries after “also recorded” stand apart in the source; their conditions may differ. Where two headings read alike, the source gives them in different places.
# Tests used:
# [1] = tested on: methicillin-resistant S. aureus (MRSA) strain USA 300; test: Hollow fiber pharmacodynamic model, resistance potential; assay type: cell-based
# Protocol: A hollow fiber model was used to evaluate CEM-102 resistance potential in methicillin-resistant S. aureus (MRSA) strain USA 300 (Network of Antimicrobial Resistance in Staphylococcus aureus (NARSA), Chantilly, Va.). USA 300 is a highly virulent strain of MRSA and is the most common community-associated MRSA isolate in the USA. MIC values were determined in accordance with Clinical and Laboratory Standards Institute (CLSI).
# The hollow fiber model comprised a two-compartment hollow fiber model (Louie et al. Antimicrob Agents Chemother 52:2486-2496(2008)) consisting of a volume of 15 mL in the central compartment, with multiple ports for the removal of broth, delivery of antibiotics, and collection of bacterial and antimicrobial samples. […] All experiments were performed in duplicate.
# Hollow fibers contain 15 ml of media was prepared and inoculated with 10^6 colony forming units (CFU)/mL USA 300 bacteria. One of three different dosing regimens of […] was then applied to the fibers: (1) […] q12h; (2) 1200 mg/ml×2, followed by […], q12h; (3) 1500 mg/ml×2, followed by […], q12h.
# [2] = Dose escalation study, single/multiple dose and loading dose regimens: pharmacokinetics; assay type: in vivo, human; conditions: for concentration at 7 days: after 7 days of dosing; for concentration at 7 days / concentration at 24 h: read-out: mean trough plasma concentration
# Protocol: (§1) The pharmacokinetics (PK), safety, and tolerability of single and multiple doses of CEM-102 (sodium fusidate) were evaluated in a single-center, Phase 1, double-blind, randomized, placebo-controlled, dose-escalating study in 32 healthy adult subjects enrolled in 4 dosage groups (550, 1100, 1650, and 2200 mg). In each cohort, six subjects were to receive CEM-102 and two were to receive placebo in a single dose (Period 1) and then multiple doses BID for a total of 11 doses over 5.5 days (Period 2). The two dosing periods were separated by a seven-day washout period between the single dose in Period 1 and the first dose in Period 2.
# (§2) Dosing proceeded as planned for Cohorts 1 to 3; however, Cohort 4 received only the single dose of 2200 mg (Period 1), because dose-limiting gastrointestinal intolerance was observed after multiple doses of 1650 mg BID in Cohort 3. Period 2 for Cohort 4 evaluated an initial loading dose regimen, and a second loading dose regimen was evaluated in an additional cohort (Cohort 5) per a protocol amendment.
# (§3) The protocol was amended for assessment of the safety, tolerability, and PK of front-loaded dose regimens comprised of a higher dose of CEM-102 on Day 1 followed by lower doses for the subsequent 6.5 days. All loading dose regimens employed multiple doses lower than the maximum tolerated dose (MTD) established in the first part of the study (1650 mg administered as multiple doses).
# (§4) The loading dose regimens assessed were 1100 mg BID on Day 1 and 550 mg BID on the following 6.5 days in Period 2 of Cohort 4 and 1650 mg BID on Day 1 and 825 mg BID on the following 6.5 days in Cohort 5.
# [3] = Dose escalation study, single/multiple dose and loading dose regimens: safety and tolerability; assay type: in vivo
# Protocol: as §1, §2, §3, §4
# [4] = Multi-dose pharmacokinetics 500 mg TID, 13 doses; assay type: in vivo, human; conditions: for AUC: Day 5 (13 doses)
# Protocol: The pharmacokinetics of multiple oral doses of CEM-102 (sodium fusidate) 500 mg tablets in healthy subjects was evaluated. Subjects were randomized in a 3:1 ratio and received either CEM-102 500 mg (2×250 mg; n=18) or placebo tablets TID (n=6) for 4.5 days for a total of 13 doses.
# Blood samples for assay of plasma concentrations of CEM-102 and placebo were collected pre-dose on Day 1 and at 24, 48, 72, and 96 hours. Samples were also collected at the following times after the morning dose on Day 5: 0.5, 1, 1.5, 2, 2.5, 3, 3.5, 4, 6, 8, 12, 16, 24, 36, and 48 hours.
# Plasma concentrations of CEM-102 were assayed at MicroConstants, Inc. in San Diego, Calif., USA using a validated LC/MS/MS method with a lower limit of quantitation (LLOQ) of 20.0 ng/mL.
# [5] = human, in vivo, 550 mg, Period 1 Day 1, single dose 550 mg
# [6] = human, in vivo, 1100 mg BID loading dose then 550 mg BID
# [7] = human, in vivo, 1100 mg, Period 1 Day 1, single dose 1100 mg
# [8] = human, in vivo, 1650 mg BID loading dose then 825 mg BID
# [9] = human, in vivo, 1650 mg, Period 1 Day 1, single dose 1650 mg
# [10] = human, in vivo, 2200 mg, Period 1 Day 1, single dose 2200 mg
# [11] = after the single dose of 2200 mg
smiles,measurement,setting,value
"CC(=O)O[C@H]1C[C@@]2(C)[C@@H](C[C@@H](O)[C@H]3[C@@]4(C)CC[C@@H](O)[C@@H](C)[C@@H]4CC[C@@]32C)/C1=C(\CCC=C(C)C)C(=O)O [CEM-102, Sodium fusidate]",reduction of bacterial counts,[1]; 1200 mg×2 then 600 mg q12h,2 logs
same,time until which resistance was suppressed,[1]; 1500 mg×2 then 600 mg q12h,> 72 h
same,AUC(0-12) accumulation ratio,"[2]; Mean AUC(0-12) Day 6/Mean AUC(0-inf) Day 1, 550 mg",2.61
same,AUC(0-12) accumulation ratio,"[2]; Mean AUC(0-12) Day 6/Mean AUC(0-inf) Day 1, 1100 mg",2.30
same,AUC(0-12) accumulation ratio,"[2]; Mean AUC(0-12) Day 6/Mean AUC(0-inf) Day 1, 1650 mg",1.83
same,Cmax accumulation ratio,"[2]; Mean Cmax Day 6/Mean Cmax Day 1, 550 mg",3.89
same,Cmax accumulation ratio,"[2]; Mean Cmax Day 6/Mean Cmax Day 1, 1100 mg",3.89
same,Cmax accumulation ratio,"[2]; Mean Cmax Day 6/Mean Cmax Day 1, 1650 mg",3.18
same,"Kel, apparent first-order terminal elimination rate constant, mean","[2]; Period 1 Day 1, single dose 550 mg",0.0564 h⁻¹
same,"Kel, apparent first-order terminal elimination rate constant, mean","[2]; Period 1 Day 1, single dose 1100 mg",0.0617 h⁻¹
same,"Kel, apparent first-order terminal elimination rate constant, mean","[2]; Period 1 Day 1, single dose 1650 mg",0.0498 h⁻¹
same,"Kel, apparent first-order terminal elimination rate constant, mean","[2]; Period 1 Day 1, single dose 2200 mg",0.0500 h⁻¹
same,"Kel, mean","[2]; Period 2 Day 6, 550 mg BID",0.0554 h⁻¹
same,"Kel, mean","[2]; Period 2 Day 6, 1100 mg BID",0.0404 h⁻¹
same,"Kel, mean","[2]; Period 2 Day 6, 1650 mg BID",0.0199 h⁻¹
same,Tmax,"[2]; human, in vivo, 550 mg",3 h
same,Cmax,[2]; [5],33.4 µg/mL
same,Vd/F,[2]; [5],28.4 L
same,AUC(0-t),"[2]; human, in vivo, 550 mg, Period 1 Day 1, single dose 550 mg, read-out: AUC(0-24), mean",242 µg·h/mL
same,half-life,"[2]; human, in vivo, 550 mg, Period 1 Day 1, single dose 550 mg, read-out: T1/2, harmonic mean (converted)",12.3 h
same,Tmax,"[2]; human, in vivo, 550 mg, Period 1 Day 1, single dose 550 mg, read-out: Tmax, median",2 h
same,Vd/F,"[2]; human, in vivo, 550 mg, Period 2 Day 6, 550 mg BID",9.88 L
same,Cmax,"[2]; human, in vivo, 550 mg, Period 2 Day 6, 550 mg BID, 11 doses",130 µg/mL
same,AUC(0-t),"[2]; human, in vivo, 550 mg, Period 2 Day 6, 550 mg BID, read-out: AUC(0-12), mean",1150 µg·h/mL
same,half-life,"[2]; human, in vivo, 550 mg, Period 2 Day 6, 550 mg BID, read-out: T1/2, harmonic mean (converted)",12.5 h
same,concentration at 7 days,[2]; [6],~105 µg/mL
same,concentration at 24 h,[2]; [6],~74 µg/mL
same,Cmax,[2]; [7],72.2 µg/mL
same,Vd/F,[2]; [7],16.9 L
same,AUC(0-t),"[2]; human, in vivo, 1100 mg, Period 1 Day 1, single dose 1100 mg, read-out: AUC(0-24), mean",844 µg·h/mL
same,half-life,"[2]; human, in vivo, 1100 mg, Period 1 Day 1, single dose 1100 mg, read-out: T1/2, harmonic mean (converted)",11.2 h
same,Vd/F,"[2]; human, in vivo, 1100 mg, Period 2 Day 6, 1100 mg BID",12.7 L
same,Cmax,"[2]; human, in vivo, 1100 mg, Period 2 Day 6, 1100 mg BID, 11 doses",281 µg/mL
same,AUC(0-t),"[2]; human, in vivo, 1100 mg, Period 2 Day 6, 1100 mg BID, read-out: AUC(0-12), mean",2530 µg·h/mL
same,half-life,"[2]; human, in vivo, 1100 mg, Period 2 Day 6, 1100 mg BID, read-out: T1/2, harmonic mean (converted)",17.1 h
same,Tmax,"[2]; human, in vivo, 1650 mg",4 h
same,concentration at 7 days,[2]; [8],~200 µg/mL
same,concentration at 24 h,[2]; [8],~150 µg/mL
same,Cmax,[2]; [9],102 µg/mL
same,Vd/F,[2]; [9],21.1 L
same,AUC(0-t),"[2]; human, in vivo, 1650 mg, Period 1 Day 1, single dose 1650 mg, read-out: AUC(0-24), mean",1260 µg·h/mL
same,Vd/F,"[2]; human, in vivo, 1650 mg, Period 2 Day 6, 1650 mg BID",34.8 L
same,Cmax,"[2]; human, in vivo, 1650 mg, Period 2 Day 6, 1650 mg BID, 11 doses",324 µg/mL
same,AUC(0-t),"[2]; human, in vivo, 1650 mg, Period 2 Day 6, 1650 mg BID, read-out: AUC(0-12), mean",3290 µg·h/mL
same,half-life,"[2]; human, in vivo, 1650 mg, Period 2 Day 6, 1650 mg BID, read-out: T1/2, harmonic mean (converted)",31.6 h
same,"CL/F, mean","[2]; human, in vivo, 2200 mg",0.924 L/h
same,half-life,"[2]; human, in vivo, 2200 mg",13.9 h
same,Cmax,[2]; [10],128 µg/mL
same,Vd/F,[2]; [10],19.2 L
same,AUC(0-t),"[2]; human, in vivo, 2200 mg, Period 1 Day 1, single dose 2200 mg, read-out: AUC(0-24), mean",1690 µg·h/mL
same,Tmax,"[2]; human, in vivo, 2200 mg, Period 1 Day 1, single dose 2200 mg, read-out: Tmax, median",6 h
same,AUC(0-inf),"[2]; human, in vivo, Period 1 Day 1, single dose 550 mg",441 µg·h/mL
same,AUC(0-inf),"[2]; human, in vivo, Period 1 Day 1, single dose 1100 mg",1100 µg·h/mL
same,AUC(0-inf),"[2]; human, in vivo, Period 1 Day 1, single dose 1650 mg",1800 µg·h/mL
same,AUC(0-inf),"[2]; human, in vivo, Period 1 Day 1, single dose 2200 mg",2650 µg·h/mL
same,maximum tolerated dose (MTD),[3]; administered as multiple doses,1650 mg
same,subjects reporting nausea,"[3]; after multiple doses, all cohorts",9 subjects
same,"changes in physical examinations, vital signs, ECGs, or laboratory parameters",[3]; after single doses,no clinically significant changes
same,subjects with nausea alone,[3]; [11],2
same,subjects with nausea and vomiting,[3]; [11],1 subject
same,safety and tolerability,[3]; doses up to 1650 mg BID for 5.5 days,safe and generally well tolerated
same,"Adverse Event (treatment-emergent, per subject and day)",[3]; loading dose regimen 1100/550 mg,Urinary; also recorded: Nausea; also recorded: Constipation
same,tolerability,"[3]; loading dose regimens 1100/550 mg and 1650/825 mg, total 7.5 days",very well tolerated
same,"Adverse Event (treatment-emergent, per subject and day)","[3]; multiple dose 550 mg BID cohort, blinded listing",Nausea; also recorded: Epigastric pain; also recorded: Dizziness; also recorded: Elevated BP; also recorded: Headache; also recorded: Tachycardia; also recorded: Pharyngitis; also recorded: Hoarseness; also recorded: Sore throat
same,"Adverse Event (treatment-emergent, per subject and day)","[3]; multiple dose 1100 mg BID cohort, blinded listing",Heartburn; also recorded: Constipation; also recorded: Skin Irritation; also recorded: Nausea; also recorded: Dizziness; also recorded: Viral URI
same,subjects reporting nausea,[3]; multiple doses 550 mg BID,2 subjects
same,subjects reporting nausea,[3]; multiple doses 1100 mg BID,2 subjects
same,subjects reporting nausea,[3]; multiple doses 1650 mg BID,5 subjects
same,subjects with vomiting,[3]; multiple doses 1650 mg BID,4 subjects
same,"Adverse Event (treatment-emergent, per subject and day)",[3]; single dose 1650 mg,None
same,"Adverse Event (treatment-emergent, per subject and day)",[3]; single dose 2200 mg,Nausea; also recorded: Vomiting; also recorded: Abdomen distention
same,gastrointestinal AEs,"[3]; single dose, 550, 1100 or 1650 mg cohorts",no gastrointestinal AEs
same,tolerability,[3]; single doses up to 2200 mg,safe and well tolerated
same,"changes in physical examinations, vital signs, ECGs, or laboratory parameters","[3]; single doses up to 2200 mg, multiple doses up to 1650 mg for 5.5 days, or loading dose regimens for 7.5 days",no clinically significant changes
same,overall safety and tolerability,[3]; whole study,safe and generally well tolerated
same,serious or life-threatening adverse events,[3]; whole study,No serious or life-threatening adverse events
same,trough level,"[4]; 500 mg TID, prior to dosing on Day 5",105 µg/mL
same,"Cmaxss, geometric mean","[4]; human, in vivo, 500 mg",145.68 µg/mL
same,AUC,"[4]; human, in vivo, 500 mg, 500 mg TID, read-out: AUC0-tss, geometric mean",3560 µg·h/mL
same,AUC,"[4]; human, in vivo, 500 mg, 500 mg TID, read-out: AUC0-τss, geometric mean",1030 µg·h/mL
